# In PubChem BioAssay (NCI):
#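 At the GI50, growth is halved. TGI is the concentration that stops growth completely.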
# Experiments:
# Assay in all cases: NCI-60 cell line screen, 384-well format
# T-47D breast = tested on: T-47D breast
# TK-10 renal = tested on: TK-10 renal
# RXF 393 renal = tested on: RXF 393 renal
# HCT-15 colon = tested on: HCT-15 colon
# CCRF-CEM leukemia = tested on: CCRF-CEM leukemia
# NCI-H322M lung = tested on: NCI-H322M lung
# SNB-75 CNS = tested on: SNB-75 CNS
# UO-31 renal = tested on: UO-31 renal
# HL-60(TB) leukemia = tested on: HL-60(TB) leukemia
# 786-0 renal = tested on: 786-0 renal
# BT-549 breast = tested on: BT-549 breast
# CAKI-1 renal = tested on: CAKI-1 renal
# SK-MEL-28 melanoma = tested on: SK-MEL-28 melanoma
# IGROV1 ovarian = tested on: IGROV1 ovarian
# SF-539 CNS = tested on: SF-539 CNS
# HT29 colon = tested on: HT29 colon
# HOP-92 NSCLC = tested on: HOP-92 NSCLC
# SW-620 colon = tested on: SW-620 colon
# PC-3 prostate = tested on: PC-3 prostate
# SNB-19 CNS = tested on: SNB-19 CNS
# MDA-MB-231 breast = tested on: MDA-MB-231 breast
# MCF7 breast = tested on: MCF7 breast
# SF-268 CNS = tested on: SF-268 CNS
# HS 578T breast = tested on: HS 578T breast
# ACHN renal = tested on: ACHN renal
# HCC-2998 colon = tested on: HCC-2998 colon
# SR leukemia = tested on: SR leukemia
# U251 glioblastoma = tested on: U251 glioblastoma
# KM12 colon = tested on: KM12 colon
structure (smiles),measurement,setting,value
CS(=O)(=O)c1ccc(-c2cnc(N)c(C(=O)Nc3ccccc3)n2)cc1,GI50,T-47D breast,> 100 µM
same,TGI,T-47D breast,> 100 µM
same,GI50,TK-10 renal,2.75 µM
same,TGI,TK-10 renal,18.7 µM
same,GI50,RXF 393 renal,6.56 µM
same,TGI,RXF 393 renal,43.4 µM
same,GI50,HCT-15 colon,3.32 µM
same,TGI,HCT-15 colon,> 100 µM
same,GI50,CCRF-CEM leukemia,1.51 µM
same,TGI,CCRF-CEM leukemia,3.01 µM
same,GI50,NCI-H322M lung,14.9 µM
same,TGI,NCI-H322M lung,> 100 µM
same,GI50,SNB-75 CNS,16.6 µM
same,TGI,SNB-75 CNS,> 100 µM
same,GI50,UO-31 renal,6.65 µM
same,TGI,UO-31 renal,22.1 µM
same,GI50,HL-60(TB) leukemia,3.34 µM
same,TGI,HL-60(TB) leukemia,9.07 µM
same,GI50,786-0 renal,3.11 µM
same,TGI,786-0 renal,65.7 µM
same,GI50,BT-549 breast,2.6 µM
same,TGI,BT-549 breast,11.5 µM
same,GI50,CAKI-1 renal,5.25 µM
same,TGI,CAKI-1 renal,18.4 µM
same,GI50,SK-MEL-28 melanoma,> 100 µM
same,TGI,SK-MEL-28 melanoma,> 100 µM
same,GI50,IGROV1 ovarian,2.9 µM
same,TGI,IGROV1 ovarian,> 100 µM
same,GI50,SF-539 CNS,5.27 µM
same,TGI,SF-539 CNS,> 100 µM
same,GI50,HT29 colon,3.76 µM
same,TGI,HT29 colon,> 100 µM
same,GI50,HOP-92 NSCLC,4.58 µM
same,TGI,HOP-92 NSCLC,> 100 µM
same,GI50,SW-620 colon,> 100 µM
same,TGI,SW-620 colon,> 100 µM
same,GI50,PC-3 prostate,15 µM
same,TGI,PC-3 prostate,> 100 µM
same,GI50,SNB-19 CNS,28.2 µM
same,TGI,SNB-19 CNS,> 100 µM
same,GI50,MDA-MB-231 breast,62.3 µM
same,TGI,MDA-MB-231 breast,> 100 µM
same,GI50,MCF7 breast,2.78 µM
same,TGI,MCF7 breast,> 100 µM
same,GI50,SF-268 CNS,> 100 µM
same,TGI,SF-268 CNS,> 100 µM
same,GI50,HS 578T breast,4.54 µM
same,TGI,HS 578T breast,49.9 µM
same,GI50,ACHN renal,3.02 µM
same,TGI,ACHN renal,16.1 µM
same,GI50,HCC-2998 colon,0.543 µM
same,TGI,HCC-2998 colon,9.37 µM
same,GI50,SR leukemia,0.603 µM
same,TGI,SR leukemia,4.57 µM
same,GI50,U251 glioblastoma,6.52 µM
same,TGI,U251 glioblastoma,> 100 µM
same,GI50,KM12 colon,40 µM
